Values of other authors, collected in patent US5631296A, “Drugs containing S(+)-ibuprofen” (priority 1992, dated 1997).

Key:
serum proteins = settings: stereoselective
[1] = system: cyclooxygenase subunit of the enzyme prostaglandin synthease
[2] = comparatively low dosage
skin inflammation = settings: healthy test subjects, relative to racemate
arthritic patients = settings: daily dose well below the conventional racemate dosage
humans = settings: U.S. Pat. No. 4,851,444

SMILES	toxic effects directly attributable to accumulation of R(-) in fatty tissue (chronic administration of the racemate)	accumulation of the R(-) enantiomer in the fatty tissue (in vivo)	binding to the serum proteins (serum proteins)	inhibition of prostaglandin synthesis (mechanism of action found in vitro) [1]	therapeutic action relative to the racemate [2]	analgesic action (rhesus monkeys)	dose-effect curve in skin inflammation model (skin inflammation)	therapeutic effect in arthritic patients (arthritic patients)	onset and intensity of analgesic effect versus identical amounts of the racemate (humans)
CC(C)Cc1ccc(C(C)C(=O)O)cc1 (racemic) [racemate, 2-(4-isobutylphenyl)propionic acid]	no toxic effects have so far been observed	leads to an accumulation of the R(-) enantiomer in the fatty tissue							
CC(C)Cc1ccc([C@@H](C)C(=O)O)cc1 [R(-)-ibuprofen]			competing for the binding site						
CC(C)Cc1ccc([C@H](C)C(=O)O)cc1 [S(+)-ibuprofen]			competing for the binding site	found in vitro only for the S(+) enantiomer	the same therapeutic action as the racemate	stronger analgesic action	shifted towards lower dosage relative to that of the racemate	good therapeutic effect	starts more rapidly and is more intense
